From ChEMBL document CHEMBL1201862, “PubChem BioAssay data set” (2004)
The source made the active and inactive calls.

How the values were obtained:
Cytochrome P450 3A4 = Cytochrome P450 3A4 (Homo sapiens, UniProt P08684);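 further: CYP3A4 tested as one member of a cytochrome P450 panel screen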
Cytochrome P450 1A2 = biological target: T1, Cytochrome P450 1A2 (Homo sapiens, UniProt P05177);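 further: PubChem cytochrome P450 panel assay, CYP1A2 panel member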
T1 sequence (P05177 whole entry): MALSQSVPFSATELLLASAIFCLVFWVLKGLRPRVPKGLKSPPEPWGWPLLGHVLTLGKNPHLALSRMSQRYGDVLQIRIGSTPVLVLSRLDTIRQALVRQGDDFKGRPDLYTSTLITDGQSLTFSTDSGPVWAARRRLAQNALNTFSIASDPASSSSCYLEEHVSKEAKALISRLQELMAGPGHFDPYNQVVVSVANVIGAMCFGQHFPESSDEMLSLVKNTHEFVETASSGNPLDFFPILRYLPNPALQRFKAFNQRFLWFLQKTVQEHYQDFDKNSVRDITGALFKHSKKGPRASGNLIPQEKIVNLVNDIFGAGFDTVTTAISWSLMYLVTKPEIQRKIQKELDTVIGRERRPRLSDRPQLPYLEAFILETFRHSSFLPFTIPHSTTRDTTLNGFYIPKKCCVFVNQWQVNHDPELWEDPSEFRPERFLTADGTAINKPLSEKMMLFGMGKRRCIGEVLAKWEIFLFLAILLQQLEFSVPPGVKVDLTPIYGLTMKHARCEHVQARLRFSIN

Cytochrome P450 2D6 = Cytochrome P450 2D6 (Homo sapiens, UniProt P10635);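 further: CYP2D6 member of a cytochrome P450 panel assay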
[1] = cytotoxicity in HMLE control line with eGFP shRNA, dose response, counter-screen for HMLE_sh_ECad selective toxicity project, cell-based, HMLE_sh_eGFP, luminescence (AID 463074); format: functional, Homo sapiens;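 further: HMLE human mammary epithelial cells expressing control shRNA against eGFP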
[2] = Luminescence Cell-Based Dose Retest to Confirm Inhibitors of Cancer Stem Cells. [Related pubchem assays (depositor defined):AID2717, AID2721]; format: functional; details: Homo sapiens
HEK293 [3] = assay: cells; format: functional, cell-based; details: Homo sapiens
[4] = Luminescence Cell-Based Dose Confirmation HTS to Identify Activators of 5'UTR Stem-Loop Driven Alpha-Synuclein mRNA Translation in H4 Neuroglioblastoma Cells. [Related pubchem assays: 1829 (Project Summary), 1814 (Primary HTS)]; format: functional
HEK293 [5] = assay: NOD2 signaling inhibitors in MDP-stimulated cells, cell-based, uHTS, luminescence (AID 2001); format: functional; details: Homo sapiens
HEK293 [6] = assay: NOD1 signaling inhibitors, primary screen, cell-based, luminescence, uHTS (AID 1578); format: functional; details: Homo sapiens
[7] = Luminescence Cell-Based Dose Response HTS to Identify Activators of Luciferase Translation or Activity in H4 […] Cells. [Related pubchem assays: 1829 (Project Summary), 1814 (Primary HTS)]; format: functional
HEK293 [8] = assay: cells; format: functional, cell-based; details: Homo sapiens; remark: listed apart in the source
H4 = assay: Luminescence Cell-Based Dose Response HTS to Identify Activators of 5'UTR Stem-Loop Driven Prion Protein mRNA Translation in H4 Neuroglioblastoma Cells. [Related pubchem assays: 1829 (Project Summary), 1814 (Primary HTS)]; format: functional; details: Homo sapiens
[9] = biological target: Peroxisome proliferator-activated receptor gamma/Nuclear receptor coactivator 1 (Homo sapiens, UniProt P37231); assay: TR-FRET dose response biochemical High Throughput Screening assay for agonists of the steroid receptor coactivator 1 (SRC-1) recruitment by the peroxisome proliferator-activated receptor gamma (PPAR gamma): non-selective agonists. [Related pubchem assays (depositor defined):AID1300, AID1808, AID504735, AID631]; format: protein assay
[10] = biological target: Peroxisome proliferator-activated receptor gamma/Nuclear receptor coactivator 2 (Homo sapiens, UniProt P37231); assay: (§1) TR-FRET dose response biochemical High Throughput Screening assay for agonists of the steroid receptor coactivator 2 (SRC-2) recruitment by the peroxisome proliferator-activated receptor gamma (PPAR gamma): non-selective agonists. [Related pubchem assays: 1297, 1032 ]; format: functional
[11] = biological target: Peroxisome proliferator-activated receptor gamma/Nuclear receptor coactivator 3 (Homo sapiens, UniProt P37231); assay: as §1, with “3 (SRC-3)” for “2 (SRC-2)”, “1301 (Confirmation screen.), 1048 (Primary screen.)]” for “1297, 1032 ]”; format: functional
BJ [12] = assay: cells; format: functional, cell-based; details: Homo sapiens
[13] = cytotoxicity toward DRD oncogenic fibroblasts, dose response, cell-based, non-viral oncogenic, luminescence (AID 1934); format: functional; details: Homo sapiens
[14] = cytotoxicity in HEK-293T cells, dose response, cytotoxicity control for TCR NF-kB inhibitor project, luminescence, T-cell screen hits (AID 489026); format: functional, cell-based;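 further: cells exposed to compound about 14 hours before the viability readout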
[15] = inhibitors of firefly luciferase expression or activity, dose response, H4 neuroglioma cells, luminescence (AID 1990); format: functional, cell-based
BJ [16] = assay: cytotoxicity toward BJ-TERT fibroblasts, dose response, cell-based, RAS-independent, luminescence (AID 1933); format: functional; details: Homo sapiens
[17] = inhibitors of SNCA 5'UTR-driven reporter translation, confirmation, H4 neuroglioma cells, luminescence (AID 1988); format: functional, cell-based
[18] = Luminescence Cell-Based Dose Response HTS to Identify Inhibitors of 5'UTR Stem-Loop Driven Prion Protein mRNA Translation in H4 Neuroglioblastoma Cells. [Related pubchem assays: 1827 (Project Summary), 1813 (Primary HTS)]; format: functional
BJ [19] = assay: cytotoxicity toward BJ-TERT-LT-ST fibroblasts, dose response, cell-based, RAS-independent, luminescence (AID 1935); format: functional; details: Homo sapiens;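 further: BJ fibroblasts immortalized with TERT plus LT and ST oncogenes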

Chain of Cytochrome P450 2D6 (P10635 whole entry): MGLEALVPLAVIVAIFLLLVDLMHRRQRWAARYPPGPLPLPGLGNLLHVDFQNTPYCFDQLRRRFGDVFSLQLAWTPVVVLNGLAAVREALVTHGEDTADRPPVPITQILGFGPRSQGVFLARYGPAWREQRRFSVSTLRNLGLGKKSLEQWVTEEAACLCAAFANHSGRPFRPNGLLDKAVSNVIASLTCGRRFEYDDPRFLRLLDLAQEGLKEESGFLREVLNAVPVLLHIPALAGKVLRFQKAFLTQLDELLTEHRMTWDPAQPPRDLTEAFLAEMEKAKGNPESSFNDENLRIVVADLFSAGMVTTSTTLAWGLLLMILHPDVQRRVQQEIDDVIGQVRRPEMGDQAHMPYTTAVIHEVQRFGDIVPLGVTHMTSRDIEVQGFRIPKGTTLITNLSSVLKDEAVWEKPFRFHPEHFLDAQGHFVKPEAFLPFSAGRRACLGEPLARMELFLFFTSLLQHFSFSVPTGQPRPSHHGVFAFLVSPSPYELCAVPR
Chain of Peroxisome proliferator-activated receptor gamma/Nuclear receptor coactivator 1 (P37231 whole entry): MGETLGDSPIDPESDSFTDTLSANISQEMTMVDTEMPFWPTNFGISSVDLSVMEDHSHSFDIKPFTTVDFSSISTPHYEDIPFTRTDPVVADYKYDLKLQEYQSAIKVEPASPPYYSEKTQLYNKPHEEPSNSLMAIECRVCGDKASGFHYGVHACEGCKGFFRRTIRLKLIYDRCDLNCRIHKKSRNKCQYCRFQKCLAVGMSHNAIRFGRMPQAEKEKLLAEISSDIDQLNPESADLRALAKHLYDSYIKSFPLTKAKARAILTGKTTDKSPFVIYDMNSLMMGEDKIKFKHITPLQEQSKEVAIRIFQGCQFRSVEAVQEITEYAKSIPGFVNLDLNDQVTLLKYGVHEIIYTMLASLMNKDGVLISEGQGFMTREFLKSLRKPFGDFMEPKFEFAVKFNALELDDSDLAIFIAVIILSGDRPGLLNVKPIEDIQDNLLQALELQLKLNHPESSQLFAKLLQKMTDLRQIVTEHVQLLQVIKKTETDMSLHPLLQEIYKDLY
Chain of Peroxisome proliferator-activated receptor gamma/Nuclear receptor coactivator 1 (Q15788 whole entry, further chain): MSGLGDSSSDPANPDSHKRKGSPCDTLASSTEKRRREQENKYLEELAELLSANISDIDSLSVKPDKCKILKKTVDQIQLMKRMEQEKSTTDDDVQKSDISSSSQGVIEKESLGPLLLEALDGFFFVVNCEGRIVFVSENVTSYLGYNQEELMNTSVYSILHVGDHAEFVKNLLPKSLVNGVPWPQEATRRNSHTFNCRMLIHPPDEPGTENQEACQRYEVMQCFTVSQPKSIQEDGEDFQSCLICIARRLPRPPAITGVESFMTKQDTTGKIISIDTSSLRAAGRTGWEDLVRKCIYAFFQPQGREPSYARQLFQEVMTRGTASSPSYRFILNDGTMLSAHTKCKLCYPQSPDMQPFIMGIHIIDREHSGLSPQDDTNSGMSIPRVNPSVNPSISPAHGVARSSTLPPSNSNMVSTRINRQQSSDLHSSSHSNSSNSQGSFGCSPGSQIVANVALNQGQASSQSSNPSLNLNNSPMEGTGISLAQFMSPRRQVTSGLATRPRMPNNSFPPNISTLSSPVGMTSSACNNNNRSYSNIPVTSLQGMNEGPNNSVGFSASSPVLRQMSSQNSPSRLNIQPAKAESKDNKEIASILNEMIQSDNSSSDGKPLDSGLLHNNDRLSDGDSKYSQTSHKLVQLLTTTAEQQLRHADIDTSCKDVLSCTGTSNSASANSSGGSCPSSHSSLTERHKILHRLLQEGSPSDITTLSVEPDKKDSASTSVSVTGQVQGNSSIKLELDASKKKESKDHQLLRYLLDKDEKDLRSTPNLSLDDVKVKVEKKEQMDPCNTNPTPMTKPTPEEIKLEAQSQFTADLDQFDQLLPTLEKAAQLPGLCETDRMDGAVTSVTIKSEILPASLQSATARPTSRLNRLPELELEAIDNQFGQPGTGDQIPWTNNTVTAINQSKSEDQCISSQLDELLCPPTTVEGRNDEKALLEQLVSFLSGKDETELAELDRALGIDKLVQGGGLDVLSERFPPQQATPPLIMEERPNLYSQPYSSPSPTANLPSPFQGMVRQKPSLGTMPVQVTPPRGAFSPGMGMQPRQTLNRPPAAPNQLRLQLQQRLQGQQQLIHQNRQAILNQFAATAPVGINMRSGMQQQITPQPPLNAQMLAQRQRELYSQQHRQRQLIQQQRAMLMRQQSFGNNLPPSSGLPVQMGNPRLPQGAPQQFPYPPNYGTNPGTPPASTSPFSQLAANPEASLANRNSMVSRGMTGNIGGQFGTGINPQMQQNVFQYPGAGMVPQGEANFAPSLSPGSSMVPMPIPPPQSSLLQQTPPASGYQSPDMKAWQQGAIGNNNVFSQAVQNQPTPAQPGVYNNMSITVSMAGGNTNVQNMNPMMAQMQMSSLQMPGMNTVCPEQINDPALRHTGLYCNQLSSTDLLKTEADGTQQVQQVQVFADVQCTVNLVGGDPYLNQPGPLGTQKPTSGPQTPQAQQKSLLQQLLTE
Chain of Peroxisome proliferator-activated receptor gamma/Nuclear receptor coactivator 3 (P37231 whole entry): as the sequence (P37231 whole entry) above
Chain of Peroxisome proliferator-activated receptor gamma/Nuclear receptor coactivator 3 (Q9Y6Q9 whole entry, further chain): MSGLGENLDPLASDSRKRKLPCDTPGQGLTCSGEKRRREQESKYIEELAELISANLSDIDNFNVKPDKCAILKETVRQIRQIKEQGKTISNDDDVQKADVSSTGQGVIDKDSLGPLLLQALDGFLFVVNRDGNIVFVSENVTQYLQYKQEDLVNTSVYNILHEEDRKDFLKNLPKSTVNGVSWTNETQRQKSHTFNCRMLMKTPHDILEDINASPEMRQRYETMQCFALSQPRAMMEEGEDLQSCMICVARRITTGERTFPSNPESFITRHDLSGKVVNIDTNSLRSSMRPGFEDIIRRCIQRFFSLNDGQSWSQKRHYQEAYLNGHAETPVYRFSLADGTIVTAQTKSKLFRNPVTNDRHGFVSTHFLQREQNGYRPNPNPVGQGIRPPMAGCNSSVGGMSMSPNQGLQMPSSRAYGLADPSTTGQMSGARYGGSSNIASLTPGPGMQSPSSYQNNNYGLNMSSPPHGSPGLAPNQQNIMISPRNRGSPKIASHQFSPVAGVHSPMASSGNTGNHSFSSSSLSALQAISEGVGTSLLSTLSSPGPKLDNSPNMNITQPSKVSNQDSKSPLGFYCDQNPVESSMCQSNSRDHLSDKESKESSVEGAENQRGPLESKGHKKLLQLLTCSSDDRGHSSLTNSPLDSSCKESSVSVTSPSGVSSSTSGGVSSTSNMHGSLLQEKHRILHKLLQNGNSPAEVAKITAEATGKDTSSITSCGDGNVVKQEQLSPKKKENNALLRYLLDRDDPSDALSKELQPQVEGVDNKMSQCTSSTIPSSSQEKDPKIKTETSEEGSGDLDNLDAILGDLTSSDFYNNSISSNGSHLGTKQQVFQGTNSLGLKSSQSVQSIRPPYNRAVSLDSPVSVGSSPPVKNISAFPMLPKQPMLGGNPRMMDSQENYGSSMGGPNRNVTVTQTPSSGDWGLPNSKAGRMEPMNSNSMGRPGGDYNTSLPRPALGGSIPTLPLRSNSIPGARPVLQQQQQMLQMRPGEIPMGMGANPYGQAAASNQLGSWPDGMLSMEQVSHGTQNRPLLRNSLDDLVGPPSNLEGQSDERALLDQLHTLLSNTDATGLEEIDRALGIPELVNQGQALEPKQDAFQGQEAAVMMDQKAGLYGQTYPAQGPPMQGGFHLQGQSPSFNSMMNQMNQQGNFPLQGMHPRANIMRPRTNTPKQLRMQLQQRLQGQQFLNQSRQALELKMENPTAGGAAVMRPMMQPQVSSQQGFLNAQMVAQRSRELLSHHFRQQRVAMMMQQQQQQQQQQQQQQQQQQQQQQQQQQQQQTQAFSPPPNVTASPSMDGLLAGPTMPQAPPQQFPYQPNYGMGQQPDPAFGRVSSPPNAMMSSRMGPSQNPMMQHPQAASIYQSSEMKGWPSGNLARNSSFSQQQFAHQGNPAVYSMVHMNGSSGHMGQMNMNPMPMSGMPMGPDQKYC
Chain of Cytochrome P450 3A4 (P08684 whole entry): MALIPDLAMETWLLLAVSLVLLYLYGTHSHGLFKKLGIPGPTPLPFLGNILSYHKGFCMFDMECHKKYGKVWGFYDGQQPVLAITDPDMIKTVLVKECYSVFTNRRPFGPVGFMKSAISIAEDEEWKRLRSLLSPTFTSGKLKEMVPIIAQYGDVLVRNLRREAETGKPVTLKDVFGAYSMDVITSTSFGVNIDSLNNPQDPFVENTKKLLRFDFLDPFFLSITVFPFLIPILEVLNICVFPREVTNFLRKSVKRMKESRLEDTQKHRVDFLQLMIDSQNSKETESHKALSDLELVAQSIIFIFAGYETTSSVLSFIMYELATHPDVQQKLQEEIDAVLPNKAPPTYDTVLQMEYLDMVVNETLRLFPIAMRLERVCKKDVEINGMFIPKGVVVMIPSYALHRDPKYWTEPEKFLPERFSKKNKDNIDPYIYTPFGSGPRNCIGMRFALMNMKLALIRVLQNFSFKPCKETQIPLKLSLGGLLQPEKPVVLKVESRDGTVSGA

SMILES: COc1ccc2c(=O)c(-c3ccccc3C)c(C)oc2c1
- AC50 (Cytochrome P450 3A4): inconclusive
- AC50 (Cytochrome P450 1A2): 31.6 µM (inconclusive)
- AC50 (Cytochrome P450 2D6): inconclusive

SMILES: COc1ccc(CCNc2cc(C)nc3c(-c4ccc(Cl)cc4)cnn23)cc1OC
- AC50 [1]: 24.1 µM (active)
- AC50 [2]: 4.77 µM (active)

SMILES: CCn1c(SCC(=O)N2CCN(c3ccc(F)cc3)CC2)nc2ccccc2c1=O
- AC50 [1]: 58.9 µM (active)
- AC50 [2]: 20.1 µM (active)

SMILES: Cc1ccc(C(=O)c2cnc3cc4c(cc3c2S(=O)(=O)c2ccccc2)OCCO4)cc1
- IC50 (HEK293 [3]): 14.7 µM (active)
- EC50 [4]: 6.76 µM (active)
- IC50 (HEK293 [5]): 12.9 µM (inactive)
- EC50 (HEK293 [6]): > 20 µM (inactive)
- EC50 [7]: 9.9 µM (active)
- IC50 (HEK293 [8]): > 20 µM (inactive)
- EC50 (H4): 7.93 µM (active)

SMILES: NC(=O)CSc1oc(-c2cccs2)nc1S(=O)(=O)c1ccccc1
- EC50 [9]: 10.9 µM (inactive)
- EC50 [10]: 10.8 µM (not active)
- EC50 [11]: > 79.4 µM (not active)

SMILES: O=[As](O)(O)c1ccc(NCc2ccccc2)cc1
- AC50 (Cytochrome P450 2D6): inconclusive

SMILES: O=C(Nc1cccnc1)c1sc(Nc2ccccc2F)nc1-c1ccccc1
- EC50 [9]: 6.48 µM (active)
- EC50 [10]: 6.83 µM (active)
- EC50 [11]: 28.3 µM (not active)

SMILES: Cc1ccc(NS(=O)(=O)c2ccc(-c3cnc(C4CC4)o3)cc2)c(C)c1
- EC50 (BJ [12]): 0.985 µM (active)
- AC50 [1]: 5.23 µM (inconclusive)
- AC50 [2]: < 0.16 µM (active)
- EC50 [13]: 18.9 µM (inconclusive)
- IC50 [14]: 51.2 µM (inactive)
- EC50 [15]: 4.97 µM (inconclusive)
- EC50 (BJ [16]): 1.2 µM (active)
- EC50 [17]: 0.502 µM (active)
- EC50 [18]: 3.3 µM (active)
- EC50 (BJ [19]): 0.847 µM (inconclusive)
